Residues, ends and D or L forms follow the SMILES beside them. *: point of attachment. Cbz = O=C(OCc1ccccc1)*; CH2F = FC*
Key:
SARS-CoV-2 M^pro = SARS-CoV-2 M^pro (Severe acute respiratory syndrome coronavirus 2, UniProt P0DTD1); conditions: at 20 μM, authors' previous screening; cited from earlier work
caspase-3 = biological target: T1, caspase-3 (Homo sapiens, UniProt P42574); format: biochemical; conditions: read-out: Caspase-3 IC50
T1 sequence (P42574 29-175 limits assumed): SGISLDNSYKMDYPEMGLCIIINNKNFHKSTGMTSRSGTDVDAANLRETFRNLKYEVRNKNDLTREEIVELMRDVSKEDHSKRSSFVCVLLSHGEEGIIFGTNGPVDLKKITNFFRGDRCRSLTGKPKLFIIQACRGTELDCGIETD
T1 sequence (P42574 176-277 limits assumed): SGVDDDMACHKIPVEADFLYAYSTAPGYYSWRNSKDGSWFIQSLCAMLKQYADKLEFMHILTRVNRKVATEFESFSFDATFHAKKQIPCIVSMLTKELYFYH

Row | SMILES | inhibition of M^pro enzymatic activity (SARS-CoV-2 M^pro) | IC50 (caspase-3)
1 | CCC[C@H](NC(=O)[C@@H]1[C@H]2CCC[C@H]2CN1C(=O)[C@@H](NC(=O)[C@@H](NC(=O)c1cnccn1)C1CCCCC1)C(C)(C)C)C(=O)C(=O)NC1CC1 [telaprevir] | 31% | –
2 | COC(=O)C[C@H](NC(=O)[C@H](C)NC(=O)[C@@H](NC(=O)OCc1ccccc1)C(C)C)C(=O)CF [Z-VAD-FMK] (Cbz-Val-Ala-Asp(OMe)-CH2F) | – | 100 ± 40 nM

Reference: article PMC8204911 (ACS Pharmacology & Translational Science, 2021)
